# Data reported in patent US5254574A, “New tetrazole derivatives, process for their preparation and their use” (Chemisch Pharmazeutische Forschungsgesellschaft m.b.H., priority 1991, dated 1993).
# “Also recorded” adds a separate entry of the source.
# Key:
# [1] = cited from earlier work
# [2] = test system: angiotensin II induced increases in mean arterial blood pressure; experiment: Anaesthetized normotensive rat: angiotensin II induced increases in mean arterial blood pressure after intraduodenal administration; conditions: FIG. 3
# Method: b) anaesthetized normotensive rat: Angiotension II (1 /ug/kg i.v.) was given before as well as in 15 minutes intervals after intraduodenal administration of the drugs.
# FIG. 3 The effects of DuP 753 and Subst. 1 on angiotension II induced increases in mean arterial bloodpessure in normotensive anaesthetized rats (n=4)
# [3] = biological target: T1, Angiotensin II receptor (isolated rat aorta) (Rattus norvegicus, UniProt P25095); experiment: Isolated rat aorta, contractile force; cumulative angiotensin II dose-response curves with and without antagonist pretreatment; conditions: dose/effect curve of angiotensin II; FIG. 1, FIG. 2
# T1 construct: isolated rat aorta; from tissue; host or cells: isolated rat aorta
# T1 sequence (P25095 1-359): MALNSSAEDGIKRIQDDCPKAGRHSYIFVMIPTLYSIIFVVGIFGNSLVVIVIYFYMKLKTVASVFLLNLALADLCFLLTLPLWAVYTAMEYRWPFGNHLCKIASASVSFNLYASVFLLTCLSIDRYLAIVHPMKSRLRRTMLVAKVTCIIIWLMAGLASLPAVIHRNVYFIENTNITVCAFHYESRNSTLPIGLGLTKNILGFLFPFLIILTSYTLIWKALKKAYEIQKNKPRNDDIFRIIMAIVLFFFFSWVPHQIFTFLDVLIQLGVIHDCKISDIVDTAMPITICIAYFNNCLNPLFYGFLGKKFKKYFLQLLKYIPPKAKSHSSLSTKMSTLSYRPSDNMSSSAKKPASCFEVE
# Method: 1 or DuP 753 (10-8, 10^-7, 10^-6 mol/1, each) and results were expressed as percentage of maximum contraction obtained by addition of 10^-5 mol/1 noradrenaline.
# EP50 -values and pA2 -values were determined arithmetically.
# FIG. 1 Isolated rat aorta contractile force of subst. 1
# FIG. 2 Isolated rat aorta contractile force of DuP 753
# [4] = test system: angiotensin II receptor; conditions: Wong et al., 1990, JPET 255, 211-217; cited from earlier work
Structure (SMILES),metabolic conversion in vivo ([1]; literature),duration of action in vivo ([2]; DuP 753 compared with the substances according to the invention),conversion into active non-competitive metabolite in vivo ([2]; concluded from duration of action),mode of antagonism in vitro [3],"contribution of metabolite to duration of action of DuP 753 ([1]; in vivo, Wong et al., 1990)",mode of angiotensin II receptor antagonism [4]
"CCCCc1nc(Cl)c(CO)n1Cc1ccc(-c2ccccc2-c2nn[nH]n2)cc1 [DuP 753, 2-n-butyl-4-chloro-5-hydroxymethyl-1-((2'-(1-H-tetrazol-5-yl)biphenyl-4-yl)methyl)imidazole]","converted into a non-competitive metabolite, EXP 3174",longer duration of action,conversion into an active non-competitive metabolite is detectable,acts competitively in experiments in vitro,,
"CCCCc1nc(Cl)c(C(=O)O)n1Cc1ccc(-c2ccccc2-c2nnn[nH]2)cc1 [EXP 3174, 2-n-butyl-4-chloro-1-((2'-(1H-tetrazol-5-yl)biphenyl-4-yl)methyl)-imidazole-5-carboxylic acid]",,,,,responsible for the long duration of action; also recorded: largely responsible for the duration of action of DuP 753,non-competitive irreversible angiotensin II receptor antagonist
